Assay results from ChEMBL document CHEMBL1126053, “4-Amido-2-carboxytetrahydroquinolines. Structure-activity relationships for antagonism at the glycine site of the NMDA receptor” (J Med Chem, 1992).

Biological target: T1, Glutamate receptor ionotropic, NMDA 1 (Rattus norvegicus, UniProt P35439)
Assay: Inhibition of [3H]- glycine binding to NMDA receptor from rat cortical membranes.
Type: cell membranes, Membrane

Row | Compound | IC50 [µM]
1 | O=C(N[C@H]1C[C@H](C(=O)O)Nc2cc(Cl)cc(Cl)c21)C(c1ccccc1)c1ccccc1 | 0.061
2 | O=C(O)[C@H]1C[C@H](NCc2ccccc2)c2c(Cl)cc(Cl)cc2N1 | 10.7
3 | N[C@@H](Cc1ccccc1)C(=O)N[C@@H]1C[C@@H](C(=O)O)Nc2cc(Cl)cc(Cl)c21 | > 100
4 | O=C(CCCc1ccccc1)N[C@H]1C[C@H](C(=O)O)Nc2cc(Cl)cc(Cl)c21 | 0.17
5 | O=C(CCc1ccccc1)N[C@H]1C[C@H](C(=O)O)Nc2cc(Cl)cc(Cl)c21 | 0.076
6 | O=C(O)[C@H]1C[C@H](N2C(=O)c3ccccc3C2=O)c2c(Cl)cc(Cl)cc2N1 | 1.9
7 | O=C(N[C@H]1C[C@H](C(=O)O)Nc2cc(Cl)cc(Cl)c21)c1ccco1 | 0.15
8 | O=C(O)[C@H]1C[C@H](NS(=O)(=O)c2ccccc2)c2c(Cl)cc(Cl)cc2N1 | 5.2
9 | O=C(Cc1ccccc1)N[C@H]1C[C@H](C(=O)O)Nc2cc(Cl)cc(Cl)c21 (stereo in doubt; 16) | 5.9
10 | CC(=O)N[C@H]1C[C@H](C(=O)O)Nc2cc(Cl)cc(Cl)c21 | 0.9
11 | CC(C)(C)OC(=O)N[C@H]1C[C@H](C(=O)O)Nc2cc(Cl)cc(Cl)c21 | 0.94
12 | COc1ccc(CC(=O)N[C@H]2C[C@H](C(=O)O)Nc3cc(Cl)cc(Cl)c32)cc1 | 0.039
13 | O=C(N[C@H]1C[C@H](C(=O)O)Nc2cc(Cl)cc(Cl)c21)C1CCCCC1 | 0.17
14 | N[C@H](Cc1ccccc1)C(=O)N[C@@H]1C[C@@H](C(=O)O)Nc2cc(Cl)cc(Cl)c21 | > 1000
15 | CCCC(=O)N[C@H]1C[C@H](C(=O)O)Nc2cc(Cl)cc(Cl)c21 | 0.37
16 | O=C(O)[C@H]1C[C@H](N2CCCC2=O)c2c(Cl)cc(Cl)cc2N1 | 0.046
17 | O=C(N[C@H]1C[C@H](C(=O)O)Nc2cc(Cl)cc(Cl)c21)OCc1ccccc1 | 0.079
18 | O=C(O)[C@H]1C[C@H](NC(=S)Nc2ccccc2)c2c(Cl)cc(Cl)cc2N1 | 0.09
19 | O=C(O)[C@H]1C[C@H](NC(=O)N2CCc3ccccc32)c2c(Cl)cc(Cl)cc2N1 | 0.22

Row | Compound | IC50 [µM]
20 | O=C(N[C@H]1C[C@H](C(=O)O)Nc2cc(Cl)cc(Cl)c21)c1ccccc1 | 0.1
21 | O=C(O)[C@H]1C[C@H](N2Cc3ccccc3CC2=O)c2c(Cl)cc(Cl)cc2N1 | 0.072
22 | O=C(CN[C@H]1C[C@H](C(=O)O)Nc2cc(Cl)cc(Cl)c21)Nc1ccccc1 | 0.42
23 | O=C(Cc1ccc(Cl)cc1)N[C@H]1C[C@H](C(=O)O)Nc2cc(Cl)cc(Cl)c21 | 0.052
24 | CN(C(=O)N[C@H]1C[C@H](C(=O)O)Nc2cc(Cl)cc(Cl)c21)c1ccccc1 | 0.045
25 | O=C(N[C@@H]1C[C@H](C(=O)O)Nc2cc(Cl)cc(Cl)c21)c1ccccc1 | 8.3
26 | O=C(CC1CCCCC1)N[C@H]1C[C@H](C(=O)O)Nc2cc(Cl)cc(Cl)c21 | 0.11
27 | O=C(O)[C@H]1C[C@H](N2Cc3ccccc3NC2=O)c2c(Cl)cc(Cl)cc2N1 | 0.51
28 | N[C@H]1C[C@H](C(=O)O)Nc2cc(Cl)cc(Cl)c21 | 11.3
29 | O=C(O)[C@H]1CCc2c(Cl)cc(Cl)cc2N1 | 6.4
30 | N[C@@H]1C[C@H](C(=O)O)Nc2cc(Cl)cc(Cl)c21 | 14.1
31 | O=C(N[C@H]1C[C@H](C(=O)O)Nc2cc(Cl)cc(Cl)c21)c1ccncc1 | 0.63
32 | N#CN/C(=N\[C@H]1C[C@H](C(=O)O)Nc2cc(Cl)cc(Cl)c21)Nc1ccccc1 | 0.58
33 | N[C@@H](Cc1ccccc1)C(=O)N[C@H]1C[C@H](C(=O)O)Nc2cc(Cl)cc(Cl)c21 | 1.05
34 | CC(C)(C)OC(=O)N[C@@H]1C[C@H](C(=O)O)Nc2cc(Cl)cc(Cl)c21 | 11.4
35 | Cc1cc(C)c2c(c1)N[C@@H](C(=O)O)C[C@@H]2NC(=O)Cc1ccccc1 | 0.067
36 | O=C(NCc1ccccc1)[C@H]1C[C@H](C(=O)O)Nc2cc(Cl)cc(Cl)c21 | 1.7
37 | N[C@H](Cc1ccccc1)C(=O)N[C@H]1C[C@H](C(=O)O)Nc2cc(Cl)cc(Cl)c21 | 7
38 | O=C(Cc1ccccc1)N[C@H]1C[C@H](C(=O)O)Nc2cc(I)cc(Cl)c21 | 0.042

Now from value to molecule:

Row | IC50 [µM] | Compound
39 | 0.034 | Cc1ccc(CC(=O)N[C@H]2C[C@H](C(=O)O)Nc3cc(Cl)cc(Cl)c32)cc1
40 | 0.032 | O=C(Cc1cccs1)N[C@H]1C[C@H](C(=O)O)Nc2cc(Cl)cc(Cl)c21
41 | 0.03 | O=C(Cc1ccsc1)N[C@H]1C[C@H](C(=O)O)Nc2cc(Cl)cc(Cl)c21
42 | 0.03 | O=C(Cc1ccc(O)cc1)N[C@H]1C[C@H](C(=O)O)Nc2cc(Cl)cc(Cl)c21
43 | 0.03 | O=C(NCc1ccccc1)N[C@H]1C[C@H](C(=O)O)Nc2cc(Cl)cc(Cl)c21
44 | 0.03 | O=C(C[C@H]1C[C@H](C(=O)O)Nc2cc(Cl)cc(Cl)c21)Nc1ccccc1
45 | 0.028 | O=C(NC1CCCCC1)N[C@H]1C[C@H](C(=O)O)Nc2cc(Cl)cc(Cl)c21
46 | 0.027 | O=C(O)[C@H]1C[C@H](N2Cc3ccccc3C2=O)c2c(Cl)cc(Cl)cc2N1
47 | 0.025 | O=C(N[C@H]1C[C@H](C(=O)O)Nc2cc(Cl)cc(Cl)c21)C1c2ccccc2-c2ccccc21
48 | 0.019 | O=C(O)[C@H]1C[C@H](NC(=O)N(c2ccccc2)c2ccccc2)c2c(Cl)cc(Cl)cc2N1
49 | 0.018 | Cc1cccc(NC(=O)N[C@H]2C[C@H](C(=O)O)Nc3cc(Cl)cc(Cl)c32)c1
50 | 0.018 | Nc1ccc(CC(=O)N[C@H]2C[C@H](C(=O)O)Nc3cc(Cl)cc(Cl)c32)cc1
51 | 0.014 | O=C(Cc1ccccc1)N[C@H]1C[C@H](C(=O)O)Nc2cc(Cl)cc(Cl)c21 (stereo in doubt; 14)
52 | 0.011 | O=C(Cc1ccccc1)N[C@H]1C[C@H](C(=O)O)Nc2cc(Cl)cc(Cl)c21 (stereo in doubt; 15)
53 | 0.01 | O=C(Cc1ccccc1)N[C@H]1C[C@H](C(=O)O)Nc2cc(Cl)cc(I)c21
54 | 0.0074 | O=C(Nc1ccccc1)N[C@H]1C[C@H](C(=O)O)Nc2cc(Cl)cc(Cl)c21
55 | 0.0073 | Cc1ccccc1NC(=O)N[C@H]1C[C@H](C(=O)O)Nc2cc(Cl)cc(Cl)c21
56 | 0.006 | O=C(O)[C@H]1C[C@H](N2CCN(c3ccccc3)C2=O)c2c(Cl)cc(Cl)cc2N1
57 | 0.006 | O=C(Nc1ccccc1)N[C@H]1C[C@H](C(=O)O)Nc2cc(Cl)cc(I)c21
58 | 0.005 | Cc1ccc(NC(=O)N[C@H]2C[C@H](C(=O)O)Nc3cc(Cl)cc(Cl)c32)cc1

Biological target: T1, Glutamate receptor ionotropic, NMDA 1
Assay: Inhibition of [3H]- glycine binding to N-methyl-D-aspartate glutamate receptor from rat cortical membranes
Type: cell membranes, Membrane

Row | IC50 [µM] | Compound
59 | 0.011 | O=C(Nc1cccc2ccccc12)N[C@H]1C[C@H](C(=O)O)Nc2cc(Cl)cc(Cl)c21
